Assay results taken from US12595253B2, “Benzamides of pyrazolylamino-pyrimidinyl derivatives, and compositions and methods thereof” (LYNK PHARMACEUTICALS CO. LTD., priority 2019, dated 2026).

Assays:
[1] = Liver microsomes study, Phase I stability (HLM); format: in vitro ADME, human; conditions: pH 7.4; human liver microsomes 0.5 mg/mL, 1 μM test article; read-out: HLM Clint
How it was run: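 Rat or human liver microsomes were incubated with test article, and reactions started with an NADPH regenerating system. Samples at 0, 10, 30 and 90 minutes were quenched with cold acetonitrile and analyzed by LC/MS/MS. T½ and CLint came from the ln(% remaining) versus time slope, scaled by protein concentration.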

[2] = Liver microsomes study, Phase I stability (RLM); format: in vitro ADME, rat; conditions: pH 7.4; rat liver microsomes 0.5 mg/mL, 1 μM test article; read-out: RLM Clint
Protocol: Commercially available liver microsomes (MsLM vendor: XENOTECH; RLM, DLM, MkL, HLM vendor: Corning) were used for study the Phase I stability of test articles. […] The reaction was initiated by addition of 80 μL of the NADPH regenerating system to 320 µL of each incubation mixture per time point. […] The 0-minute samples were prepared by addition of an 80 μL aliquot of each incubation mixture to 400 μL quench reagent to precipitate proteins. And then a 20 μL aliquot of the NADPH regenerating system was added. At 10, 30, and 90 minutes, the reaction will be stopped by the addition of cold acetonitrile solution containing tolbutamide and propanolol served as internal standard. The samples taken at all time points were centrifuged at 4000×g for 15 minutes. 80 μL of supernatant are taken into 96-well assay plates pre-added with 160 μL ultrapure water, and then analyzed by LC/MS/MS(Shimadzu LC30AD & API4000/API5000)). Concentrations of test articles, control compounds in the samples were determined by using LC/MS/MS) method. Plotting of the chromatograms and peak area integrations are carried out by Analyst (AB Sciex).
In the determination of the in vitro elimination constant, ke, of the control compounds, the analyte/internal standard peak area ratios will be converted to percentage remaining (% Remaining) with the following equation: […]
The slope was measured by the natural logarithm of the percentage of the residual compound and time, T½ and CLint were calculated according to the following formulas, V/M was equal to the 1/concentration of protein.

JAK2 = target: T1, JAK2 (Homo sapiens, UniProt O60674); assay: JAK2 microfluidic kinase assay (Caliper EZ Reader II, FAM labeled peptide substrate); format: biochemical
T1 construct: purchased Carna Biosciences
T1 sequence (O60674 whole entry): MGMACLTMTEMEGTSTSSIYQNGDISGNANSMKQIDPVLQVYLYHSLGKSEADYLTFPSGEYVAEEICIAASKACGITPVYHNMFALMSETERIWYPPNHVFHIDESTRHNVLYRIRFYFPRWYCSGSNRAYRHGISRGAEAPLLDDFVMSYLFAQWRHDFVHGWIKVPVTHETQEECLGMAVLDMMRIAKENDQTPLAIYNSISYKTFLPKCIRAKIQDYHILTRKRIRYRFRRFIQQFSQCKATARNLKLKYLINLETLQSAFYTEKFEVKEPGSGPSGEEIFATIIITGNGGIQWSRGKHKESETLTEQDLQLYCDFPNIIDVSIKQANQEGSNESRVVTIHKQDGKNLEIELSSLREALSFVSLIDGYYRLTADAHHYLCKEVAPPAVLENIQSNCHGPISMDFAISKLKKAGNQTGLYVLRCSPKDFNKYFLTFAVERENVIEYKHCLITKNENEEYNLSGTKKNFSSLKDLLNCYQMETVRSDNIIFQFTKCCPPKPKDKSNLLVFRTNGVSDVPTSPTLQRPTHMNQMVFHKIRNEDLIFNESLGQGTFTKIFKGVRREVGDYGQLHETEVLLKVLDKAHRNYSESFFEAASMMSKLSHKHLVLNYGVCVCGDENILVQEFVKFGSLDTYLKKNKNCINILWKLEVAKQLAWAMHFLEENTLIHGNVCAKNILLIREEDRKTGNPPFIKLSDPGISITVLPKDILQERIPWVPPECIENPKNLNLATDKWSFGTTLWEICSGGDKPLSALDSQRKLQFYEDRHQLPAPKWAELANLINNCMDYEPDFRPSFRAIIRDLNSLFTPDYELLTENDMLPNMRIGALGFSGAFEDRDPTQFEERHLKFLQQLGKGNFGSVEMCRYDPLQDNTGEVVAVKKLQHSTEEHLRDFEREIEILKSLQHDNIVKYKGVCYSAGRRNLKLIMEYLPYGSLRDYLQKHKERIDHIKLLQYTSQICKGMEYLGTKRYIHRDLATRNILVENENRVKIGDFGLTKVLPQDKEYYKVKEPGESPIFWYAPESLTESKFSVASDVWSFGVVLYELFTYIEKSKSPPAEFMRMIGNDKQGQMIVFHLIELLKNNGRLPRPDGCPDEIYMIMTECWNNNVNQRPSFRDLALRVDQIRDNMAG
How it was run: (§1)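 Compounds, serially diluted 3-fold from 5 μM, were preincubated 10 min with enzyme at ambient temperature before reaction in HEPES/Brij35/MgCl2/DTT buffer (1% DMSO final), tuned to 10% peptide conversion. After EDTA stop, FAM-peptide phosphorylation was measured by Caliper EZ Reader II; IC50 fitted from percent-inhibition curves.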

JAK1 = target: T2, JAK1 (Homo sapiens, UniProt P23458); assay: JAK1 microfluidic kinase assay (Caliper EZ Reader II, FAM labeled peptide substrate); format: biochemical
T2 construct: purchased Carna Biosciences
T2 sequence (P23458 whole entry): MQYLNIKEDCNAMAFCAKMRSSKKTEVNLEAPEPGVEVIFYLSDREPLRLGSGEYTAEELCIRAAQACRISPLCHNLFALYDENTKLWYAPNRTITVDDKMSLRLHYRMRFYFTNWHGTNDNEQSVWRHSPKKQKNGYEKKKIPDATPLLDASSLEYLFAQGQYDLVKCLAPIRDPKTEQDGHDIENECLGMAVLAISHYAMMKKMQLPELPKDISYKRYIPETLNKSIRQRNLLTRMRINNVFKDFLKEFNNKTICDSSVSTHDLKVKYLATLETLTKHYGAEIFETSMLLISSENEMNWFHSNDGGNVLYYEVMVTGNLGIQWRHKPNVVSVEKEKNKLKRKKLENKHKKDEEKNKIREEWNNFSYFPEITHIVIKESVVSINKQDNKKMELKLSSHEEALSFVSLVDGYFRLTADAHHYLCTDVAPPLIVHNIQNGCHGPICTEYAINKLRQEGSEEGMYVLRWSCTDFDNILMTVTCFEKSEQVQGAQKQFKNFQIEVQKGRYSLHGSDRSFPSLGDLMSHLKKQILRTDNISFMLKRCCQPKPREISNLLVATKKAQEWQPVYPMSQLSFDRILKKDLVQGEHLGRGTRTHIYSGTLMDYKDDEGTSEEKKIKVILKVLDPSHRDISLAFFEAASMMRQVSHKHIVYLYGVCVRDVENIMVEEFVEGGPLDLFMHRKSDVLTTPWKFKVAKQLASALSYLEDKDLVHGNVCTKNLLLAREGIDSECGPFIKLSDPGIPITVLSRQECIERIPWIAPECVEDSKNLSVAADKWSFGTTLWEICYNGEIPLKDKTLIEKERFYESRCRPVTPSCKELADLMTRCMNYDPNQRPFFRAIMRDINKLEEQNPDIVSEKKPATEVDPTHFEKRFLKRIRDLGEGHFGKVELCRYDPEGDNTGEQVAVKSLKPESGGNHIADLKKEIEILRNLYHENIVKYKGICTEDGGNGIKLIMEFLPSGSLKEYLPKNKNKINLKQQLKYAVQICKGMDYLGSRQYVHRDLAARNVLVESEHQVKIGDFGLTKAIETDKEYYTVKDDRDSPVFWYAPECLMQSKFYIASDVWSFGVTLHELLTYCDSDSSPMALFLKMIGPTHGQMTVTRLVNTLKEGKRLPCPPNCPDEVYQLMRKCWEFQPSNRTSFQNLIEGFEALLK
How it was run: as §1

[3] = Rat pharmacokinetic study (intravenous and oral); format: in vivo; conditions: male, plasma, Sprague-Dawley rats, intravenous, 1 mg/kg, solution
Protocol: Pharmacokinetic profile of test articles in rodent were evaluated in fasted male ICR mouse and Sprague-Dawley rats. […] Typically, mice were dosed with 2 mg/kg and 10 mg/kg by intravenous injection and oral gavage, respectively. Rats were dosed with 1 mg/kg and 5 mg/kg by intravenous injection and oral gavage, respectively. Beagle dogs were dosed with 1 mg/kg and 5 mg/kg by intravenous injection and oral gavage, respectively. After dosing, blood samples were collected at each time point. For IV injection group, time points were set at 5, 15, 30 min, and then 1, 2, 4, 8 and 24 hours after dosing. For oral gavage group, timepoints were set at 15, 30 m, and then 1, 2, 4, 8, and 24 hours. Blood was collected into appropriately labeled tubes containing K2EDTA as the anticoagulant. Plasma was obtained within 1 hours of blood collection by centrifugation at 8000×g and 4° C. for 6 minutes, and then stored at −20° C. until analyzed by LCMS/MS for quantification.

JAK2V617F = target: T3, JAK2V617F (Homo sapiens, UniProt O60674, V617F); assay: JAK2V617F microfluidic kinase assay (Caliper EZ Reader II, FAM labeled peptide substrate); format: biochemical; conditions: JAK2V617F 2.5 nM, 1 mM ATP
T3 construct: purchased Carna Biosciences
T3 sequence (O60674 whole entry V617F): as the sequence (O60674 whole entry) above, with V617F counted along it
How it was run: as §1

CYP2C9 = target: T4, CYP2C9 (Homo sapiens, UniProt P11712); assay: CYPs inhibition in pooled human liver microsomes, probe substrate Diclofenac; format: in vitro ADME
T4 construct: 0.2 mg/mL human liver microsomes was pre-incubated in 180 μL reaction mixture; from tissue; host or cells: pooled human liver microsomes
Protocol: (§2) The inhibitory potential of test articles in pooled human liver microsomes was evaluated by the method using a cocktail of CYP substrates. […] For the negative control well, the test articles was replaced with 20 μL reaction buffer. After 10 min of pre-incubation at 37° C., 20 μL 10 mM NADPH cofactor was added to the pre-reaction mixtures. After another 10 min incubation, the reaction was stopped by adding 400 μL of ice cold acetonitrile solution containing tolbutamide and labetalol served as internal standards. The incubation mixtures were centrifuged at 4000×g for 20 min, and then the supernatants were analyzed by LC-MS/MS after dilution. SigmaPlot was applied to plot % control activity versus the test compound concentrations, and for non-linear regression analysis of the data. IC50 values of test articles were determined using 3-parameter logistic equation.

CYP1A2 = target: T5, CYP1A2 (Homo sapiens, UniProt P05177); assay: CYPs inhibition in pooled human liver microsomes, probe substrate Phenacetin; format: in vitro ADME
T5 construct: 0.2 mg/mL human liver microsomes was pre-incubated in 180 μL reaction mixture; from tissue; host or cells: pooled human liver microsomes
T5 sequence (P05177 1-516): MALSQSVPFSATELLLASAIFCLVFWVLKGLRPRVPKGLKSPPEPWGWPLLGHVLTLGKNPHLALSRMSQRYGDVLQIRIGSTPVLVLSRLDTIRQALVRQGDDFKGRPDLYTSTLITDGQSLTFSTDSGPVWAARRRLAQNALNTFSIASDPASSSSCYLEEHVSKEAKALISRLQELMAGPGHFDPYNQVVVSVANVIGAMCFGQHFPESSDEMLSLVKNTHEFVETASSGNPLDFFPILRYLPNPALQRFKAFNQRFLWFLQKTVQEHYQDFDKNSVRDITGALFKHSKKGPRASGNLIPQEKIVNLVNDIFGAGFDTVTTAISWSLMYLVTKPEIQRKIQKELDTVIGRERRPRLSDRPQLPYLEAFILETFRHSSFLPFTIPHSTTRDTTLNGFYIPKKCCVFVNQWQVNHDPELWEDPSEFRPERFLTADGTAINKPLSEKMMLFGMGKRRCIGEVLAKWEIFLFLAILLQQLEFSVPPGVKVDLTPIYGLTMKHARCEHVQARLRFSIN
Protocol: as §2

TYK2 = target: T6, TYK2 (Homo sapiens, UniProt P29597); assay: TYK2 microfluidic kinase assay (Caliper EZ Reader II, FAM labeled peptide substrate); format: biochemical; conditions: IC50 TYK2 ([…]) (1 mM ATP), TYK2 […], 1 mM ATP
T6 construct: purchased Carna Biosciences
T6 sequence (P29597 whole entry): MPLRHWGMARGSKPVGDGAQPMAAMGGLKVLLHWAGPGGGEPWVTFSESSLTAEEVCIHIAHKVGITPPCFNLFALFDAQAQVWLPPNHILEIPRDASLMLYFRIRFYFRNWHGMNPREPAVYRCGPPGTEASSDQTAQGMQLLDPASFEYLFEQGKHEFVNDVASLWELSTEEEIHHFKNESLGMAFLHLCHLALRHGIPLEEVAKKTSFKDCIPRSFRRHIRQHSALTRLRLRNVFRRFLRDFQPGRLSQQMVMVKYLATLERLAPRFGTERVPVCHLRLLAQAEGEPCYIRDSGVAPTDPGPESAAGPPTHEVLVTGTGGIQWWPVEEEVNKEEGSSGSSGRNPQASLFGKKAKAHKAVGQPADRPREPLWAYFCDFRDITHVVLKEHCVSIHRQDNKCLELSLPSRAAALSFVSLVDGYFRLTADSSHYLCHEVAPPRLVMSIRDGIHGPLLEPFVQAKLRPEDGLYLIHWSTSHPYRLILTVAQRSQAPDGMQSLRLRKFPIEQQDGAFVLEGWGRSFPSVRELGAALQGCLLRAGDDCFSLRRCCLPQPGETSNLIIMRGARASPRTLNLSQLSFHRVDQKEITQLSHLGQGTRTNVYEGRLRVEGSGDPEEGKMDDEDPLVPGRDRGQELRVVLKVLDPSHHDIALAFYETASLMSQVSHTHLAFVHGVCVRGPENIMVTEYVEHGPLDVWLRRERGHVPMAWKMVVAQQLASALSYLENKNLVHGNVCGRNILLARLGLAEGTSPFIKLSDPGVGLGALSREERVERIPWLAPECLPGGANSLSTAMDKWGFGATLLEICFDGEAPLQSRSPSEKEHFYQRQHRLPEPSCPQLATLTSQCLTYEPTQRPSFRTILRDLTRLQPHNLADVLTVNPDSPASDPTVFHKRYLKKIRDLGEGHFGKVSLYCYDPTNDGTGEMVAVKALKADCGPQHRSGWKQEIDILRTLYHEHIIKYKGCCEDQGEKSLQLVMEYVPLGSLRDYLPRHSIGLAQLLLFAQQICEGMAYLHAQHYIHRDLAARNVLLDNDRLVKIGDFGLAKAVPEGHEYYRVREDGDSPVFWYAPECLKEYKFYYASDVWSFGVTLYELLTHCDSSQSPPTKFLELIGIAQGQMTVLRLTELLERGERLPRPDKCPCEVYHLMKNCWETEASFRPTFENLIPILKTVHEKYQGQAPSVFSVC
How it was run: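 Human JAK enzymes in 50 mM HEPES, 0.01% Brij35, 10 mM MgCl2, 2 mM DTT, tuned to 10% conversion of FAM-peptide; compounds (3-fold dilutions, top 5 μM, 1% DMSO) pre-incubated 10 min. Reaction times: JAK1 120 min, JAK2 20 min, JAK2V617F 30 min, TYK2 10 min; EDTA stop, microfluidic conversion read, IC50 from % inhibition curves.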

CYP2C19 = target: T7, CYP2C19 (Homo sapiens, UniProt P33261); assay: CYPs inhibition in pooled human liver microsomes, probe substrate S-mephenytoin; format: in vitro ADME
T7 construct: 0.2 mg/mL human liver microsomes was pre-incubated in 180 μL reaction mixture; from tissue; host or cells: pooled human liver microsomes
T7 sequence (P33261 whole entry): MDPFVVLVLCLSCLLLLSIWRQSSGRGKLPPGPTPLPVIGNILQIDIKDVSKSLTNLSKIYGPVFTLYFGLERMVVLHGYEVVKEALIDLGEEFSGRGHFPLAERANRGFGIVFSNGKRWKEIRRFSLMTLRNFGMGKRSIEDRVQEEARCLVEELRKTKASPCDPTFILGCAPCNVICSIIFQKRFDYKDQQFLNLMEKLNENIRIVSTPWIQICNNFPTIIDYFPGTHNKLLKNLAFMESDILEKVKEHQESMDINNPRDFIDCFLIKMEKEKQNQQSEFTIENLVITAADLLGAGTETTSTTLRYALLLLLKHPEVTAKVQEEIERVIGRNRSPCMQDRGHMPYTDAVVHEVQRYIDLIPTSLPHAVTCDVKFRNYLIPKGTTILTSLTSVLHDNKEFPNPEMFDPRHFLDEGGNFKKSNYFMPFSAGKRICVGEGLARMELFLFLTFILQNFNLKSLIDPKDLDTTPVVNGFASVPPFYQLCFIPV
Protocol: as §2

CYP3A4 = target: T8, CYP3A4 (Homo sapiens, UniProt P08684); assay: CYPs inhibition in pooled human liver microsomes, probe substrate Midazolam; format: in vitro ADME
T8 construct: 0.2 mg/mL human liver microsomes was pre-incubated in 180 μL reaction mixture; from tissue; host or cells: pooled human liver microsomes
T8 sequence (P08684 whole entry): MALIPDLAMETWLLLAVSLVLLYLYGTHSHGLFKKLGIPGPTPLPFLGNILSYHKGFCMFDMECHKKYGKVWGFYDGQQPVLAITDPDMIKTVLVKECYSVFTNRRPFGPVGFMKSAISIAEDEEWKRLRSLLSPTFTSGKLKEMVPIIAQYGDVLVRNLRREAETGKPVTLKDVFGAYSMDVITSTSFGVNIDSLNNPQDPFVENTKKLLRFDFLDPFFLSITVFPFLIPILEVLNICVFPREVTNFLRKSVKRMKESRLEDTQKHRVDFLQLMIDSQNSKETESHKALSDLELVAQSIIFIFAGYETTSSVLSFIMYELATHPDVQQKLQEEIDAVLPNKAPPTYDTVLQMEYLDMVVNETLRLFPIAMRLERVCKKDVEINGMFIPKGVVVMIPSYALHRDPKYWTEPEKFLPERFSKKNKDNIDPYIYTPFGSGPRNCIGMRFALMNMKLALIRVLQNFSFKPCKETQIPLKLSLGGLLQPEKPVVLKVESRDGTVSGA
Protocol: as §2

CYP2D6 = target: T9, CYP2D6 (Homo sapiens, UniProt P10635); assay: CYPs inhibition in pooled human liver microsomes, probe substrate Dextromethorphan; format: in vitro ADME
T9 construct: 0.2 mg/mL human liver microsomes was pre-incubated in 180 μL reaction mixture; from tissue; host or cells: pooled human liver microsomes
T9 sequence (P10635 whole entry): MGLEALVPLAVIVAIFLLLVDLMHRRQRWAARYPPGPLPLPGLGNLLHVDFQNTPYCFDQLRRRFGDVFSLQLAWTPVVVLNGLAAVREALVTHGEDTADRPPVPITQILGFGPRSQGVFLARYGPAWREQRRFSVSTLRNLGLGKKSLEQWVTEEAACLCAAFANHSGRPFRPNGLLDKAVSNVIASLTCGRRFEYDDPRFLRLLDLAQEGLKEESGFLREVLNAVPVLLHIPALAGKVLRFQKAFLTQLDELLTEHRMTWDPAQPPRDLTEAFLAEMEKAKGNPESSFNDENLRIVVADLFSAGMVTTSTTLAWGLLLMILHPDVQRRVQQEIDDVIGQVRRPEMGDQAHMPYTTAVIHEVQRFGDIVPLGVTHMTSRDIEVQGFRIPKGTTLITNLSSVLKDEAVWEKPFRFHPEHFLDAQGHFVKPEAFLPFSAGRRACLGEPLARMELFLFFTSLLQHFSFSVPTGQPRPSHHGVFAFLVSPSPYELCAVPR
Protocol: as §2

[4] = IC50 JAK2 ([…]) (1 mM ATP), 1 mM ATP
[5] = IC50 JAK2 ([…]) (Km ATP), Km ATP
[6] = IC50 JAK1 (5 nM) (1 m MATP), JAK1 5 nM, 1 mM ATP

Compound	microsomal CLint at 1 μM [1]	microsomal CLint at 1 μM [2]	IC50 (JAK2; [4])	IC50 (JAK2; [5])	IC50 (JAK1; [6])	AUC [3]	Vd [3]	clearance [3]	half-life [3]	IC50 (JAK2V617F)	IC50 (CYP2C9)	IC50 (CYP1A2)	IC50 (TYK2)	IC50 (CYP2C19)	IC50 (CYP3A4)	IC50 (CYP2D6)	IC50 (JAK1; IC50 JAK1 (10 nM) (Km ATP), JAK1 10 nM, Km ATP)
Cc1cnc(Nc2cnn(C3CCN(C(=O)C4CC4)CC3)c2)nc1-c1ccc(C(=O)NCC#N)cc1 [Example 24, N-(Cyanomethyl)-4-(2-((1-(1-(cyclopropanecarbonyl)piperidin-4-yl)-1H-pyrazol-4-yl)amino)-5-methylpyrimidin-4-yl)benzamide]	52.8 µL/min/mg	53.6 µL/min/mg	< 0.25 nM	< 0.25 nM	13.8 nM	1970 ng·h/mL	0.43 L/kg	8.4 mL/min/kg	37.8 min	2.53 nM	–	–	–	–	–	–	–
Cc1cnc(Nc2cnn(C)c2)nc1-c1ccc(C(=O)NCC2(C#N)CC2)cc1 [Example 12, N-((1-Cyanocyclopropyl)methyl)-4-(5-methyl-2-((1-methyl-1H-pyrazol-4-yl)amino)pyrimidin-4-yl)benzamide]	4.6 µL/min/mg	132 µL/min/mg	95.5 nM	3.2 nM	37.5 nM	624 ng·h/mL	0.98 L/kg	27.1 mL/min/kg	26.4 min	–	–	–	–	–	–	–	–
Cc1cnc(Nc2cnn(C3CCOCC3)c2)nc1-c1ccc(C(=O)NCC#N)cc1 [Example 26, N-(Cyanomethyl)-4-(5-methyl-2-((1-(tetrahydro-2H-pyran-4-yl)-1H-pyrazol-4-yl)amino)pyrimidin-4-yl)benzamide]	9.3 µL/min/mg	17.1 µL/min/mg	1.03 nM	0.33 nM	14.1 nM	1060 ng·h/mL	0.6 L/kg	15.8 mL/min/kg	30 min	31.1 nM	–	–	–	–	–	–	–
CC[C@@H](C#N)NC(=O)c1ccc(-c2nc(Nc3cn[nH]c3)ncc2Cl)cc1 [Example 185, (S)-4-(2-((1H-Pyrazol-4-yl)amino)-5-chloropyrimidin-4-yl)-N-(1-cyanopropyl)benzamide]	–	–	15.2 nM	–	1.58 nM	–	–	–	–	–	6040 nM	10700 nM	3.51 nM	7630 nM	10900 nM	2300 nM	–
Cc1cnc(Nc2cnn(CCO)c2)nc1-c1ccc(C(=O)N[C@H](C#N)C2CC2)cc1 [Example 215, (S)—N-(cyano(cyclopropyl)methyl)-4-(2-((1-(2-hydroxyethyl)-1H-pyrazol-4-yl)amino)-5-methylpyrimidin-4-yl)benzamide]	–	–	41 nM	–	5.7 nM	–	–	–	–	–	> 50000 nM	> 50000 nM	28 nM	> 50000 nM	> 50000 nM	> 50000 nM	–
Cc1cnc(Nc2cnn(CCO)c2)nc1-c1ccc(C(=O)N[C@@H](C)C#N)cc1 [Example 200, (S)—N-(1-cyanoethyl)-4-(2-((1-(2-hydroxyethyl)-1H-pyrazol-4-yl)amino)-5-methylpyrimidin-4-yl)benzamide]	–	–	27.1 nM	–	2.86 nM	–	–	–	–	–	> 50000 nM	> 50000 nM	27.3 nM	> 50000 nM	> 50000 nM	> 50000 nM	–
Cc1cnc(Nc2cnn(CC(F)(F)F)c2)nc1-c1ccc(C(=O)NCC#N)cc1 [Example 28, N-(Cyanomethyl)-4-(5-methyl-2-((1-(2,2,2-trifluoroethyl)-1H-pyrazol-4-yl)amino)pyrimidin-4-yl)benzamide]	–	–	82.2 nM	2.73 nM	–	732 ng·h/mL	0.8 L/kg	22.9 mL/min/kg	24 min	193 nM	–	–	–	–	–	–	–
CC[C@@H](C#N)NC(=O)c1ccc(-c2nc(Nc3cnn(CC#N)c3)ncc2C)cc1 [Example 55, (S)-4-(2-((1-(cyanomethyl)-1H-pyrazol-4-yl)amino)-5-methylpyrimidin-4-yl)-N-(1-cyanopropyl)benzamide]	–	–	48.7 nM	–	4.33 nM	–	–	–	–	–	> 50000 nM	44800 nM	48.2 nM	> 50000 nM	21500 nM	19000 nM	–
Cc1cnc(Nc2cnn(C)c2)nc1-c1ccc(C(=O)N[C@@H](C)C#N)cc1 [Example 18, (S)—N-(1-Cyanoethyl)-4-(5-methyl-2-((1-methyl-1H-pyrazol-4-yl)amino)pyrimidin-4-yl)benzamide]	11 µL/min/mg	23.3 µL/min/mg	–	0.85 nM	10 nM	504 ng·h/mL	1.4 L/kg	33.1 mL/min/kg	28.8 min	53 nM	–	–	49.6 nM	–	–	–	–
Cc1cnc(Nc2cnn(C3CC3)c2)nc1-c1ccc(C(=O)NCC#N)cc1 [Example 25, N-(Cyanomethyl)-4-(2-((1-cyclopropyl-1H-pyrazol-4-yl)amino)-5-methylpyrimidin-4-yl)benzamide]	5.19 µL/min/mg	263 µL/min/mg	20.9 nM	0.69 nM	11.2 nM	607 ng·h/mL	0.6 L/kg	29.8 mL/min/kg	12 min	47.5 nM	–	–	–	–	–	–	1.34 nM
